Results as given in publication PMC11472310, “Distinctive Immune Signatures Driven by Structural Alterations in Desmuramylpeptide NOD2 Agonists” (Journal of Medicinal Chemistry, 2024).

Legend:
[1] = tested on: human blood monocyte subsets; assay: Monocyte conversion assay in PBMCs (CD14/CD16 flow cytometry); format: cell-based; details: 10 μM, 18 h, NT 19.5%
From the text: Engagement of NOD2 has been reported to increase the levels of an anti-inflammatory monocyte subset, denoted as patrolling monocytes (CD14^–, CD16^+2), thus exerting a counterintuitive role in inflammatory processes, while concomitantly increasing the levels of total blood monocytes (released from bone marrow).[18] […] This process involves a transition from the inflammatory monocytes, typified by CD14^+CD16^–, through an intermediate subset of CD14^+CD16^+ monocytes. […] To recapitulate this phenomenon, we modified the reported procedure and employed PBMCs in lieu of isolated monocytes. Identification of human blood monocyte subsets was achieved through flow cytometry, utilizing the expression of CD14 and CD16 markers as distinguishing criteria. […] Similar to what has been reported (e.g., inactivity of murabutide),[18] also in our case not all NOD2 agonists were equally endowed with the ability to generate patrolling monocytes.
The monocyte conversion assay was conducted following previously established methods, with some adjustments.[18] Peripheral blood mononuclear cells were plated at a density of 3 × 10^6 cells/mL in 24-well plates containing 700 μL of growth medium. Cells were then treated with MDP and desmuramylpeptides (10 μM) or the corresponding vehicle (0.1% DMSO). Following an incubation period at 37 °C with 5% CO2, cells were transferred to 1.5 mL tube using phosphate-buffered saline (PBS) and scraper. The cells were blocked with human TruStain Fcx (BioLegend) and stained using antihuman CD16 antibodies/Alexa Fluor 488 (BioLegend); antihuman CD14 antibodies/PE-Cy7 (BioLegend); antihuman HLA-DR antibodies/APC-Fire750 (BioLegend) and blocked with TrueStain Monocyte Blocker. A viability dye Helix NP Blue (BioLegend) was added to the previous panel to discriminate live cells. PBMC were analyzed using an Attune NxT flow cytometer (Thermo Fisher Scientific, Waltham, MA, USA) and the FlowJo software (Tree Star, Inc., Ashland, OR, USA). Initially, lymphocytes (CD14^–, CD16^–) and NK (CD16^–, HLA-DR^–) were eliminated, after which classical, intermediate and nonclassical monocytes were specifically identified by selective gating strategy as follows: CD14^+ CD16^– (classical), CD14^+ CD16^+ (intermediate) and CD14^– CD16^+ (nonclassical). Each experiment was conducted in duplicate and repeated in three independent biological replicates.

[2] = tested on: K562 cancer cells; assay: PBMC cytotoxicity against K562 cancer cells (flow cytometry); format: cell-based; details: for cytotoxicity of PBMCs against K562 cells, cotreatment with LPS (relative to negative control) / Cytotoxicity (ratio to control), + LPS: 10 μM + LPS 1 μg/mL; for cytotoxicity of PBMCs against K562 cells, cotreatment with LPS (relative to negative control) / enhancement of cytotoxicity of PBMCs against K562 cells (relative to negative control): 18 h, then 4 h coincubation; for cytotoxicity of PBMCs against K562 cells, cotreatment with LPS (relative to negative control): 40:1; for Cytotoxicity (ratio to control), + LPS / Cytotoxicity (ratio to control): Table S2; for Cytotoxicity (ratio to control) / enhancement of cytotoxicity of PBMCs against K562 cells (relative to negative control): alone: compounds 10 μM, LPS 1 μg/mL, IL-2 200 U/mL; for enhancement of cytotoxicity of PBMCs against K562 cells (relative to negative control): effector:target 40:1
Protocol: In this study, we investigated the potential of desmuramylpeptides, both alone and in combination with LPS, to enhance the cytotoxic activity of PBMCs against cancer cells employing a flow-cytometry-based cytotoxicity assay based on coincubation of preactivated PBMCs with fluorescently labeled K562 cancer cells.[82] Among the diverse subpopulations within PBMCs, natural killer (NK) cells play a pivotal role in detecting and eliminating cancer cells. NOD2-mediated NK cell activity against cancer cells arises from both direct NOD2 agonist elicited cytolytic activity of NK cells[83] and indirect activation through cytokine release by other NOD2-responsive cells, such as monocytes, which comprise approximately 10% of PBMCs; such interactions potentially reinforce the immune response.[84] […] To that end, we utilized the entire PBMC population as effector cells rather than isolated NK cells, to mimic conditions more closely resembling the in vivo environment while K562 chronic myelogenous leukemia cells were used as the target cells in a 40:1 effector to target cell ratio.[87]
(§1) The PBMC cytotoxicity assays utilizing K562 cells were conducted following previously established methods, with some adjustments.[82] […] Meanwhile, K562 cells were stained with CFSE (Invitrogen, Carlsbad, CA, USA), washed twice with complete medium, and then added (1 × 10^4 cells per well) to the pretreated PBMCs to achieve a final effector cell to target tumor cell ratio of 40:1. Following a 4-h coincubation period at 37 °C with 5% CO2, cells were stained with Sytox blue dead cell stain (Invitrogen) and analyzed using an Attune NxT flow cytometer (Thermo Fisher Scientific, Waltham, MA, USA) along with FlowJo software (Tree Star, Inc., Ashland, OR, USA). Cells positive for both CFSE and Sytox blue were designated as dead K562 cells. PBMCs alone and CFSE-labeled cancer cells alone were also exposed to the compounds at equivalent concentrations and stained with Sytox blue to assess any direct cytotoxic effects of the compounds on PBMCs and cancer cells separately. Each experiment was conducted in duplicate and repeated in three independent biological replicates. Statistical analysis was performed using one-way ANOVA followed by Dunnett’s multiple comparisons test.

[3] = tested on: PBMCs; assay: Direct cytotoxic effect of compounds on PBMCs (Sytox blue); format: cell-based
Protocol: Additionally, PBMCs and cancer cells alone were treated with desmuramylpeptides to assess any direct cytotoxic effects on these cells.
as §1

[4] = molecular target: T1, hNOD2 (Homo sapiens, UniProt Q9HC29); assay: HEK-Blue NOD2 cell line reporter assay (NF-κB-inducible SEAP); format: cell-based; details: HEK-Blue NOD2 cells, 18 h, NF-κB transcriptional activity (SEAP); read-out: EC50 (nM), NOD2 agonistic activity
T1 construct: host or cells: HEK-Blue NOD2 cells (HEK293)
T1 sequence (Q9HC29 whole entry): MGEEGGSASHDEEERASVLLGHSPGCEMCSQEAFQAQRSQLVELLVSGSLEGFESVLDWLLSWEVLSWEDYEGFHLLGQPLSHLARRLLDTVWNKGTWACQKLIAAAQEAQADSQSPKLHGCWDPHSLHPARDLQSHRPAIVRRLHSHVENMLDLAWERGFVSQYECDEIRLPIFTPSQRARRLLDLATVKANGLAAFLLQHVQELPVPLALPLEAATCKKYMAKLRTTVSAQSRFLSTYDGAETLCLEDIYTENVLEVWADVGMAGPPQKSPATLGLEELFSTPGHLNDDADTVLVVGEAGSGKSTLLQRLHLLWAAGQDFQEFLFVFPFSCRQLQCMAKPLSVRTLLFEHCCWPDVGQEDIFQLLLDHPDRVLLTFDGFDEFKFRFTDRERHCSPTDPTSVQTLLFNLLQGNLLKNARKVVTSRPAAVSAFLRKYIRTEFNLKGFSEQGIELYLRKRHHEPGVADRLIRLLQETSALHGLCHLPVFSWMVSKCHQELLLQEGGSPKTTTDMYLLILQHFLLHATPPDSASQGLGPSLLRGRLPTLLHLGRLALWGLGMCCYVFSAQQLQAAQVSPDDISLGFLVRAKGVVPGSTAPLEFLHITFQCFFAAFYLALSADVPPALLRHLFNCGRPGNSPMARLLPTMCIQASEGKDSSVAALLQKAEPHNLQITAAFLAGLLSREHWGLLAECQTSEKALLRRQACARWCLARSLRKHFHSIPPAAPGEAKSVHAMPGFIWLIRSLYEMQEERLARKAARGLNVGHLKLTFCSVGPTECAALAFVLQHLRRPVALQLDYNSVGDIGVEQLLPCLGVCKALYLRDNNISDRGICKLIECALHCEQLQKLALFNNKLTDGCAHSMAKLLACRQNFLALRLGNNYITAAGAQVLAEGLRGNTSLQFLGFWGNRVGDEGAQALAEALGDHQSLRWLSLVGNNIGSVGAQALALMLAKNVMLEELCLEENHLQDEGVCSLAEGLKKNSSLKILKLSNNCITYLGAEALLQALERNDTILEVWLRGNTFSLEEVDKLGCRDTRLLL
Protocol: To assess the NOD2 agonistic potential of the synthesized desmuramylpeptides at a cellular level, we employed the HEK-Blue NOD2 cell line reporter assay, a validated and commercially available method. All synthesized compounds were evaluated for their dose-dependent activities to establish their EC50 values.
The HEK-Blue NOD1 and NOD2 cell line reporter assay was generated from HEK293 cells through cotransfection of the hNOD1 or hNOD2 gene, respectively, along with an NF-κB-inducible secreted embryonic alkaline phosphatase (SEAP) reporter gene. Upon activation of NOD1 or NOD2, NF-κB triggers the production of SEAP, which can be quantitatively measured colorimetrically. […] After 18 h of incubation at 37 °C with 5% CO2, SEAP activity was measured spectrophotometrically by absorbance at 630 nm (BioTek Synergy microplate reader; Winooski, VT, USA). EC50 values were determined using Prism software (version 9; GraphPad Software, CA, USA). Each experiment was conducted in duplicate and repeated in at least two independent biological replicates.

[5] = tested on: human PBMCs; assay: Cytokine release from peripheral blood mononuclear cells (LEGENDplex panel); format: cell-based; details: 18 h; for production of proinflammatory cytokines and chemokines including IL-6, IL-8 and MCP-1: 2 μM alone (no LPS)
From the text: The immunomodulatory effects of the selected desmuramylpeptides were examined in human primary peripheral blood mononuclear cells (PBMCs). This diverse mixture of immune cells provided a platform to investigate the effects of these NOD2 agonists within a physiologically relevant environment, encompassing other NOD2-interacting and downstream signaling proteins. […] Given that NOD2 activation often modulates the Toll-like receptor (TLR)-induced cytokine responses, we investigated the impact of combining desmuramylpeptides with lipopolysaccharide (LPS), a well-known TLR4 agonist, on cytokine secretion.[76]−[78]
The elicited cytokine profiles thus broadly reflect the structure–activity relationships obtained in the reporter gene assays.
Peripheral blood mononuclear cells were plated at a density of 1 × 10^6 cells/mL in 48-well plates containing 500 μL of growth medium. Cells were then treated with the compounds (2 μM) or the corresponding vehicle (0.1% DMSO), both in the absence and presence of LPS (10 ng/mL). Following an 18 h incubation period at 37 °C with 5% CO2, cell-free supernatants were collected and stored at −80 °C until analysis. […] Standard curves were constructed using recombinant cytokines provided in the kit. Data analysis was performed using Biolegend software Qognit and Prism (GraphPad, San Diego, CA, USA) software. The experiments were independently replicated four times. Statistical significance was determined using two-way analysis of variance (ANOVA) followed by Tukey’s multiple comparisons test.

[6] = tested on: BMDC/T-cell cocultures; assay: T cell cytokine release in BMDC/T-cell cocultures; format: cell-based, C57BL/6 mouse; details: 10 μM, 72 h coculture
Protocol: (§2) For this study, we narrowed down the selection of suitable desmuramylpeptides even further. In order to assess the adjuvant potential of selected desmuramylpeptides with regard to their effect on DC-mediated activation of CD4^+ and CD8^+ T cells, we conducted an ex vivo antigen-presentation assay utilizing C57BL/6 mouse bone marrow-derived DCs (BMDCs). Upon stimulation with desmuramylpeptides at 10 μM, in conjunction with ovalbumin soluble protein (50 μg/mL), BMDCs were cocultured with carboxyfluorescein succinimidyl ester (CFSE)-labeled naïve ovalbumin-specific CD4^+ or CD8^+ T cells, which were isolated from splenocytes of OT II and OT I transgenic mice, respectively. […] Additionally, we investigated how the priming of T cells elicited by the tested compounds impacted the cytokine profiles secreted in BMDC/T-cell cocultures.
Following 72 h of coincubation with BMDCs (pretreated with desmuramylpeptides [10 μM] and washed), supernatants from CD4^+ and CD8^+ T cells were harvested as previously described. […] Standard curves were constructed using recombinant cytokines provided in the kit. Data analysis was conducted using FlowJo (Tree Star, Inc., Ashland, OR, USA) and Prism (GraphPad, San Diego, CA, USA) software. Each experiment was performed in duplicate and replicated in two independent biological runs.

[7] = tested on: CD4+ T cells cocultured with BMDCs; assay: BMDC antigen presentation to ovalbumin-specific CD4+ T cells (OT II); format: cell-based, C57BL/6 mouse; details: BMDCs pretreated 10 μM + ovalbumin 50 μg/mL 18 h, coculture 72 h; OVA-treated cells 63.8%
Protocol: as §2
(§3) CD4^+ and CD8^+ T cells were isolated from splenocytes of OT II and OT I transgenic mice using CD4^+ and CD8^+ T cell isolation kits (Miltenyi Biotec, Germany) following the manufacturer’s instructions. The purified T cells were labeled with CFSE (Invitrogen, Carlsbad, CA, USA) and subsequently washed. Next, 5 × 10^4 T cells were combined with 1 × 10^4 BMDCs/well (pretreated with desmuramylpeptides at 10 μM and 50 μg/mL ovalbumin [Invivogen, San Diego, CA, USA] for 18 h and then washed). Following a 72-h incubation period at 37 °C with 5% CO2, supernatants were harvested and stored at −80 °C for cytokine analysis. The cells were then stained with Fixable viability dye eFluor 780 (eBioscience, Thermo Fisher Scientific, MA, USA), anti-Thy1.2-PE-Cy7 antibodies (Biolegend, San Diego, CA, USA), anti-CD8-eFluor450 antibodies (eBioscience), anti-CD4-eFluor450 antibodies (eBioscience), and anti-CD25-APC antibodies (Biolegend) before analysis using a Beckman Coulter Cytoflex S flow cytometer (CA, USA) and FlowJo software (Tree Star, Inc., Ashland, OR, USA). Live Thy1.2+/CD4+ and Thy1.2+/CD8+ cells were assessed for CFSE dilution and CD25 expression. Each experiment was performed in duplicate and repeated in two independent biological replicates. Statistical significance was determined using paired t tests.

[8] = tested on: CD8+ T cells cocultured with BMDCs; assay: BMDC antigen cross-presentation to ovalbumin-specific CD8+ T cells (OT I); format: cell-based, C57BL/6 mouse; details: BMDCs pretreated 10 μM + ovalbumin 50 μg/mL 18 h, coculture 72 h; OVA-treated cells 23.3%
Protocol: as §2
as §3, with “Each experiment was performed in duplicate and repeated in two independent biological replicates.” left out

[9] = Table S2, alone: compounds 10 μM, LPS 1 μg/mL, IL-2 200 U/mL

Molecule	levels of nonclassical monocytes [1] [%]	cytotoxicity of PBMCs against K562 cells, cotreatment with LPS (relative to negative control) [2] [fold]	Cytotoxicity (ratio to control), + LPS [2]	Cytotoxicity (ratio to control) [2]	enhancement of cytotoxicity of PBMCs against K562 cells (relative to negative control) [2]	Percent of dead PBMCs ([3]; human, 18 h, 10 μM)	Percent of dead PBMCs, + LPS ([3]; human, 18 h, 10 μM)	EC50 [4] [nM]	levels of LPS-induced IL-10 ([5]; 2 μM + LPS 10 ng/mL)	production of proinflammatory cytokines and chemokines including IL-6, IL-8 and MCP-1 [5]	levels of IL-6 and TNF-α secreted by CD4+ T cells [6]	fraction of activated and proliferating CD4+ T-cells (CD25+, CFSE low) [7] [%]	Percent of dead PBMCs, + LPS ([3]; Table S2, 10 μM + LPS 1 μg/mL)	Percent of dead PBMCs [3, 9]	amounts of IL-1β, IL-6, IL-10, TNF-α and IFN-γ compared to the MDP/LPS combination ([5]; 2 μM + LPS 10 ng/mL)	levels of secreted MCP-1 compared to the MDP/LPS combination ([5]; 2 μM + LPS 10 ng/mL)	fraction of activated and proliferating CD8+ T-cells (CD25+, CFSE low) [8] [%]
CC(=O)N[C@H]1C(O)O[C@H](CO)[C@@H](O)[C@@H]1O[C@H](C)C(=O)N[C@@H](C)C(=O)N[C@H](CCC(=O)O)C(N)=O (mixture of isomers) [MDP, muramyl dipeptide, reference compound]	31.5	2.71	2.71 ± 0.16	1.17 ± 0.07	no activity	1.11% ± 0.15%	7.95% ± 0.95%	205 ± 64	amplified	minor increases	–	–	–	–	–	–	–
CCOC(=O)[C@@H](CCC(=O)NC12C[C@H]3C[C@@H](C1)C[C@@H](C2)C3)NC(=O)[C@@H](NC(=O)CNC(=O)/C=C/c1ccc(O)c(OC)c1)C(C)C [Compound 28, Ethyl N^5-((3S,5S,7S)-Adamantan-1-yl)-N^2-((E)-3-(4-hydroxy-3-methoxyphenyl)acryloyl)glycyl-L-valyl-D-glutaminate]	–	2.19	2.19 ± 0.07	0.91 ± 0.02	devoid of the capacity to induce cytotoxicity	–	–	> 10000	opposite	smaller increases	slightly increased	67.0	10.44% ± 0.63%	0.99% ± 0.21%	lesser amounts	on par	–
lipopolysaccharide [LPS, reference compound]	–	–	–	1.8 ± 0.08	1.80 fold	–	–	–	–	–	–	80.4	–	4.16% ± 0.47	–	–	55.6
